Test results from patent US12640251B2, “Methods of treating dementia associated with alzheimer's disease with protective protein/cathepsin A (PPCA)” (St. Jude Children's Research Hospital, priority 2011, dated 2026).
“Also recorded” adds a separate entry of the source.

Key:
RH41 cells = assay: Doxorubicin exposure, apoptotic response (cleaved PARP immunoblot); assay type: cell-based, human; settings: parental RH41 cells, high NEU1
RH30 cells = assay: Doxorubicin efflux assay; assay type: cell-based, human; settings: 3 μg/mL DOXO for 2 hours, then DOXO-free medium for 2 hours
Experimental: Cells were plated and maintained at 50% confluency. The next day, they were treated with medium containing 3 μg/mL DOXO for 2 hours. Treated cells were then washed 3 times with PBS and cultured in DOXO-free medium for an additional 2 hours, to allow efflux of the drug into fresh medium. The conditioned medium was then centrifuged at 1000 rpm […] for 5 minutes and a 500 μL aliquot was spun through an ULTRAFREE-MC 0.1 μm Eppendorf centrifugal filter (Millipore) to capture the effluxed drug. The filter was then placed on a microscopic slide and images of the red fluorescence filter were taken on a Nikon Cl microscope.

RH30^NEU1 cells = assay: DOXO dose response, apoptotic response (cleaved PARP immunoblot); assay type: cell-based, human; settings: compared with unmodified controls
Experimental: (§1) Finally, we generated DOXO dose response curves in both parental cell lines and the modified lines to examine the differences in their apoptotic responses. Immunoblots of the cleaved poly (ADP-ribose) polymerase (PARP), a canonical apoptotic marker, were used for this purpose (data not shown).
(§2) RH30 cells were transduced with the pBABE-puro retroviral vector (AddGene), either unmodified or containing the human NEU1 cDNA. Transduced cells were selected with puromycin (2 μg/mL), according to the predetermined sensitivity of the cell line, and were maintained in 0.5 μg/mL selection medium. RH41 cells were transfected with a panel of NEU1 shRNA plasmids (RHS4533-NM000434, Open Biosystems) or the accompanying empty vector control. The cells were selected with puromycin and maintained under selection medium.

RH41^shNEU1 cells = assay: as above; assay type: cell-based, human; settings: compared with corresponding unmodified cells
Experimental: as §1, §2

EW8 cells = assay: DOXO response of Ewing sarcoma cell line; assay type: cell-based; settings: high-NEU1 cells
Text: (§3) We, therefore, characterized other tumor cell lines, in terms of their invasive potential and NEU1 status. We chose the Ewing sarcoma cell lines, EW8 and SKNEP1, for their divergent NEU1 levels. Similar to the RMS cell lines, the low-NEU1 SKNEP1 cells accumulated oversialylated LAMP1, were resistant to DOXO, and more successfully invaded matrigel and peritoneal basement membranes than did the high-NEU1 DOXO-sensitive EW8 cells (data not shown). We also analyzed the colon carcinoma cell lines, SW480 and SW620, because of their well-characterized derivation (Leibovitz et al., 1976): SW480 cells are from a primary colon carcinoma; SW620 cells are from a metastatic recurrence. […] This was also paralleled by a drastic increase in LAMP1 levels compared to that in SW480 (data not shown).

SKNEP1 cells = assay: DOXO response of Ewing sarcoma cell line; assay type: cell-based; settings: low-NEU1 cells
Text: as §3

COc1cccc2c1C(=O)c1c(O)c3c(c(O)c1C2=O)C[C@@](O)(C(=O)CO)C[C@@H]3O[C@H]1C[C@H](N)[C@H](O)[C@H](C)O1 [doxorubicin]
response to doxorubicin (apoptosis) (RH41 cells): highly susceptible; also recorded: readily apoptosed
efflux of DOXO into culture medium (red fluorescence) (RH30 cells): released from these cells
apoptotic response to DOXO (RH30^NEU1 cells): more sensitive
apoptotic response to DOXO (RH41^shNEU1 cells): more resistant to apoptosis
response to DOXO (EW8 cells): sensitive
response to DOXO (SKNEP1 cells): resistant
